Source: patent US7524860B2, “Antibacterial agents” (Pfizer Inc., priority 2004, dated 2009)
Converted amounts (≈) assume the structure as drawn. Where two headings read alike, the source gives them in different places.

Assays:
[1] = tested on: Neisseria gonorrhoeae, GC525 (NG-2888); test: in-vitro antibacterial activity, microbroth dilution MIC susceptibility testing; assay type: cell-based; design: unit: ug/mL; conditions: microbroth dilution in gonococcal broth, 20-24 hours at 35 C, lowest concentration preventing visible growth
In short: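 Broth microdilution in gonococcal broth, inoculum ~5×10^5 cfu/mL, 20-24 h at 35 C in humidified CO2; compounds from 2 mg/mL DMSO stocks over 64-0.06 and 1-0.001 ug/mL two-fold series. MIC is the lowest concentration preventing visible growth, read visually; duplicates differing one well give the lower value, two wells the middle value.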

[2] = Neisseria gonorrhoeae, read-out: MIC

For `CCNC(=O)Nc1nc2cc(-c3cccnc3)ccn2n1` [Example 1, 1-Ethyl-3-(7-pyridin-3-yl-[1,2,4]triazolo[1,5-a]pyridin-2-yl)-urea], the MIC [1, 2] was 32 µg/mL (≈ 113 µM) and the melting point was 230 to 233 °C.

`CCNC(=O)Nc1nc2cc(-c3ccc(OC)nc3)ccn2n1` [Example 2, 1-Ethyl-3-[7-(6-methoxy-pyridin-3-yl)-[1,2,4]triazolo[1,5-a]pyridin-2-yl]-urea] showed an MIC [1, 2] of over 64 µg/mL and a melting point of 230 to 233 °C.

`CCNC(=O)Nc1nc2cc(-c3cnc(OC)nc3)ccn2n1` [Example 3, 1-Ethyl-3-[7-(2-methoxy-pyrimidin-5-yl)-[1,2,4]triazolo[1,5-a]pyridin-2-yl]-urea] showed an MIC [1, 2] of over 64 µg/mL and a melting point of 243 to 248 °C.

`CCNC(=O)Nc1nc2cc(-c3cccnc3)cc(C(=O)OC)n2n1` [Example 6, 2-(3-Ethyl-ureido)-7-pyridin-3-yl-[1,2,4]triazolo[1,5-a]pyridine-5-carboxylic acid methyl ester] gave an MIC [1, 2] of 16 µg/mL (≈ 47 µM) and a melting point of 211 to 213 °C.

Work on `CCNC(=O)Nc1nc2cc(-c3cccnc3)cc(C(=O)NC)n2n1` [Example 7, 2-(3-Ethyl-ureido)-7-pyridin-3-yl-[1,2,4]triazolo[1,5-a]pyridine-5-carboxylic acid methylamide] yielded an MIC [1, 2] of 2 µg/mL (≈ 5.89 µM) and a melting point of over 300 °C.

`CCNC(=O)Nc1nc2cc(-c3cccnc3)cc(C(=O)OCC)n2n1` [Example 16, 2-(3-ethyl-ureido)-7-pyridin-3-yl-[1,2,4]triazolo[1,5-a]pyridine-5-carboxylic acid ethyl ester] showed a melting point of 242 to 245 °C.

In the case of `CCNC(=O)Nc1nc2cc(-c3cccnc3)cc(-c3nc(C)no3)n2n1` [Example 18, 1-Ethyl-3-[5-(3-methyl-[1,2,4]oxadiazol-5-yl)-7-pyridin-3-yl-[1,2,4]triazolo[1,5-a]pyridin-2-yl]-urea], the melting point is reported as 298 to 301 °C.

`CCNC(=O)Nc1nc2cc(-c3cncnc3)cc(C(=O)NCC)n2n1` [Example 19, N-Ethyl-2-{[(ethylamino)carbonyl]amino}-7-pyrimidin-5-yl[1,2,4]triazolo[1,5-a]pyridine-5-carboxamide] gave an MIC [1, 2] of 1 µg/mL (≈ 2.82 µM) and a melting point of 317 to 321 °C.

With `CCNC(=O)Nc1nc2cc(-c3cnc(N(C)C)nc3)cc(C(=O)NCC)n2n1` [Example 20, 7-[2-(Dimethylamino)pyrimidin-5-yl]-N-ethyl-2-{[(ethylamino)carbonyl]amino}[1,2,4]triazolo[1,5-a]pyridine-5-carboxamide] the MIC [1, 2] was 1 µg/mL (≈ 2.52 µM) and the melting point was 328 to 334 °C.

Molecule `CCNC(=O)Nc1nc2cc(-c3c(C)noc3C)cc(C(=O)NCC)n2n1` [Example 21, 7-(3,5-Dimethylisoxazol-4-yl)-N-ethyl-2-{[(ethylamino)carbonyl]amino}[1,2,4]triazolo[1,5-a]pyridine-5-carboxamide] has an MIC [1, 2] of over 64 µg/mL and a melting point of 238 to 241 °C.

In the case of `CCNC(=O)Nc1nc2cc(-c3cccnc3)cc(-c3nnc(C)o3)n2n1` [Example 23, N-Ethyl-N′-[5-(5-methyl-1,3,4-oxadiazol-2-yl)-7-pyridin-3-yl[1,2,4]triazolo[1,5-a]pyridin-2-yl]urea], the MIC [1, 2] is reported as over 64 µg/mL and the melting point is reported as 318 to 321 °C.

`CCNC(=O)Nc1nc2cc(-c3cccnc3)cc(N3CCC(N(C)C)C3)n2n1` (centres unmarked) [Example 130, 1-[5-(3-Dimethylamino-pyrrolidin-1-yl)-7-pyridin-3-yl-[1,2,4]triazolo[1,5-a]pyridin-2-yl]-3-ethyl-urea] gave an MIC [1, 2] of 16 µg/mL (≈ 40.6 µM) and a melting point of 248 to 250 °C.

In the case of `CCNC(=O)Nc1nc2cc(-c3cccnc3)cc(N3CCOCC3)n2n1` [Example 133, 1-Ethyl-3-(5-morpholin-4-yl-7-pyridin-3-yl-[1,2,4]triazolo[1,5-a]pyridin-2-yl)-urea], the MIC [1, 2] is reported as 0.25 µg/mL (≈ 0.68 µM) and the melting point is reported as 298 to 300 °C.

Molecule `CCNC(=O)Nc1nc2cc(-c3cccnc3)cc(N3CCC(O)C3)n2n1` (centres unmarked) [Example 134, 1-Ethyl-3-[5-(3-hydroxy-pyrrolidin-1-yl)-7-pyridin-3-yl-[1,2,4]triazolo[1,5-a]pyridin-2-yl]-urea] has an MIC [1, 2] of 32 µg/mL (≈ 87.1 µM) and a melting point of 296 to 298 °C.

`CCNC(=O)Nc1nc2cc(-c3cccnc3)cc(OCCN(C)C)n2n1` [Example 141, 1-[5-(2-Dimethylamino-ethoxy)-7-pyridin-3-yl-[1,2,4]triazolo[1,5-a]pyridin-2-yl]-3-ethyl-urea] gave an MIC [1, 2] of 32 µg/mL (≈ 86.6 µM) and a melting point of 200 to 202 °C.

In the case of `CCNC(=O)Nc1nc2cc(-c3cccnc3)cc(OCCN3CCCC3)n2n1` [Example 143, N-Ethyl-N′-[7-pyridin-3-yl-5-(2-pyrrolidin-1-ylethoxy)[1,2,4]triazolo[1,5-a]pyridin-2-yl]urea], the MIC [1, 2] is reported as 32 µg/mL (≈ 80.9 µM) and the melting point is reported as 189 to 192 °C (dec.).

In the case of `CCNC(=O)Nc1nc2cc(-c3cccnc3)cc(N3CCNCC3)n2n1` [Example 146, 1-Ethyl-3-(5-piperazin-1-yl-7-pyridin-3-yl-[1,2,4]triazolo[1,5-a]pyridin-2-yl)-urea], the MIC [1, 2] is reported as 32 µg/mL (≈ 87.3 µM).

`CCNC(=O)c1cc(-c2cccnc2)cc2nc(NS(C)(=O)=O)nn12` [Example 147, 2-N-Methylsulfonylamino-7-pyridin-3-yl-[1,2,4]triazolo[1,5-a]pyridin-5-carboxylic acid ethyl amide] showed an MIC [1] of 4.00 µg/mL (≈ 11.1 µM).

For `CCNC(=O)Nc1nc2cc(-c3cccnc3)cc(-c3oc(C)nc3C)n2n1` [Example 148, N-[5-(2,4-Dimethyl-1,3-oxazol-5-yl)-7-pyridin-3-yl[1,2,4]triazolo[1,5-a]pyridin-2-yl]-N′-ethylurea], the MIC [1, 2] was 4 µg/mL (≈ 10.6 µM).

With `CCNC(=O)Nc1nc2cc(-c3ccc(OC)nc3)cc(-c3cnc(C)o3)n2n1` [Example 149, 1-Ethyl-3-[7-(6-methoxy-pyridin-3-yl)-5-(2-methyl-oxazol-5-yl)-[1,2,4]triazolo[1,5-a]pyridin-2-yl]-urea] the MIC [1, 2] was 16 µg/mL (≈ 40.7 µM).

Molecule `CCNC(=O)Nc1nc2cc(-c3cccnc3)cc(N(C)C3CCN(C)C3)n2n1` (centres unmarked) [Example 150, 1-Ethyl-3-(5-[methyl-(1-methyl-pyrrolidin-3-yl)-amino]-7-pyridin-3-yl-[1,2,4]triazolo[1,5-a]pyridin-2-yl)-urea] has an MIC [1, 2] of 32 µg/mL (≈ 81.1 µM).

For `CCNC(=O)c1cc(-c2cccnc2)cc2nc(NS(=O)(=O)CC)nn12` [Example 151, 2-N-ethylsulfonylamino-7-pyridin-3-yl-[1,2,4]triazolo[1,5-a]pyridin-5-carboxylic acid ethyl amide], the MIC [1] was 32.0 µg/mL (≈ 85.5 µM).

In the case of `CCNC(=O)Nc1nc2cc(-c3cccnc3)cc(NC3CCN(C)CC3)n2n1` [Example 152, 1-Ethyl-3-[5-(1-methyl-piperidin-4-ylamino)-7-pyridin-3-yl[1,2,4]triazolo[1,5-a]pyridin-2-yl]-urea], the MIC [1, 2] is reported as 8 µg/mL (≈ 20.3 µM).

“N-Methyl-N′-[5-(3-methylpyridin-2-yl)-7-pyridin-3-yl[1,2,4]triazolo[1,5-a]pyridin-2-yl]urea [Example 145]” showed an MIC [1] of 16.0 µg/mL.
